Source: paper PMC9614482, “The superior salinity tolerance of bread wheat cultivar Shanrong No. 3 is unlikely to be caused by elevated Ta-sro1 poly-(ADP-ribose) polymerase activity” (The Plant Cell, 2022)

Experiments:
[1] = target: T1, HsPARP1 (full-length) (Homo sapiens, UniProt P09874); assay type: biochemical; details: histones as substrates
T1 construct: gene PARP1; full-length protein supplied in the PARP Universal Colorimetric Assay Kit (Trevigen)

[2] = target: T2, HsPARP1 catalytic domain (PARP domain) (Homo sapiens, UniProt P09874, L713F); experiment: differential scanning fluorimetry; assay type: binding; details: 6(5H)-phenanthridinone concentrations above 2 µM
T2 construct: gene PARP1; recombinant, made in the authors' laboratory; only the L713F variant tested
T2 sequence (P09874 662-1014 L713F limits assumed): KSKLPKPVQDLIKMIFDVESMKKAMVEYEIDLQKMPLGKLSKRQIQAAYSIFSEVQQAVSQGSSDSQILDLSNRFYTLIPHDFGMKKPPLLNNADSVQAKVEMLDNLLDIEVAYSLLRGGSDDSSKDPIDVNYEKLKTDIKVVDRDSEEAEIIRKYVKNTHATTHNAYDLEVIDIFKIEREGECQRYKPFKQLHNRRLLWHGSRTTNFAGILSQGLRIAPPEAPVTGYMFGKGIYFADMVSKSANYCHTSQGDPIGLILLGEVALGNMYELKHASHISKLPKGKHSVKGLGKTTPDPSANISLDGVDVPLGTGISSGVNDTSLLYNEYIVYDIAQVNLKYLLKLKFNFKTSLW

[3] = target: T3, AtPARP2 (Arabidopsis thaliana, UniProt Q11207); experiment: immunoprecipitated GFP fusion, pan-ADP-ribose immunoblot; assay type: biochemical; details: 300 µM β-NAD+ in extraction buffer; auto-ADP-ribosylation, PAR chain formation
T3 construct: gene PARP2; GFP fusion, transiently expressed in Nicotiana benthamiana, immunoprecipitated with GFP-nanobody
T3 sequence (Q11207 whole entry, the tested form may be a part): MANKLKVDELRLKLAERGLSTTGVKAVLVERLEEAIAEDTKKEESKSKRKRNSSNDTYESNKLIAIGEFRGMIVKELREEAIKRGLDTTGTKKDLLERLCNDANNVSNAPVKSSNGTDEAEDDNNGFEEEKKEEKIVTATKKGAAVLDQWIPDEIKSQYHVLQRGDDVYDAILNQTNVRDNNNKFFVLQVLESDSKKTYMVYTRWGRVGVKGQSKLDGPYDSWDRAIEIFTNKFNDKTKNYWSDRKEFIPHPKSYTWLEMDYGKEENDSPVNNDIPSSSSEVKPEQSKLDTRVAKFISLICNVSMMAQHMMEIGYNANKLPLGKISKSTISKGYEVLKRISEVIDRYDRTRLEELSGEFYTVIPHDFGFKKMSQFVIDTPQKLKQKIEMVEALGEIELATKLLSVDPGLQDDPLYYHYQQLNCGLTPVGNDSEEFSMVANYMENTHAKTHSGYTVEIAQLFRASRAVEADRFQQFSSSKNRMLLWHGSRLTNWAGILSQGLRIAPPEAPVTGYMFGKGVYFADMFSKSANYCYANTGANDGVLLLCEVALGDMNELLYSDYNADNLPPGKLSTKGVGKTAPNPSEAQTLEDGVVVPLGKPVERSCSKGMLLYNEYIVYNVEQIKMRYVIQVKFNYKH

T1 sequence (P09874 2-1014): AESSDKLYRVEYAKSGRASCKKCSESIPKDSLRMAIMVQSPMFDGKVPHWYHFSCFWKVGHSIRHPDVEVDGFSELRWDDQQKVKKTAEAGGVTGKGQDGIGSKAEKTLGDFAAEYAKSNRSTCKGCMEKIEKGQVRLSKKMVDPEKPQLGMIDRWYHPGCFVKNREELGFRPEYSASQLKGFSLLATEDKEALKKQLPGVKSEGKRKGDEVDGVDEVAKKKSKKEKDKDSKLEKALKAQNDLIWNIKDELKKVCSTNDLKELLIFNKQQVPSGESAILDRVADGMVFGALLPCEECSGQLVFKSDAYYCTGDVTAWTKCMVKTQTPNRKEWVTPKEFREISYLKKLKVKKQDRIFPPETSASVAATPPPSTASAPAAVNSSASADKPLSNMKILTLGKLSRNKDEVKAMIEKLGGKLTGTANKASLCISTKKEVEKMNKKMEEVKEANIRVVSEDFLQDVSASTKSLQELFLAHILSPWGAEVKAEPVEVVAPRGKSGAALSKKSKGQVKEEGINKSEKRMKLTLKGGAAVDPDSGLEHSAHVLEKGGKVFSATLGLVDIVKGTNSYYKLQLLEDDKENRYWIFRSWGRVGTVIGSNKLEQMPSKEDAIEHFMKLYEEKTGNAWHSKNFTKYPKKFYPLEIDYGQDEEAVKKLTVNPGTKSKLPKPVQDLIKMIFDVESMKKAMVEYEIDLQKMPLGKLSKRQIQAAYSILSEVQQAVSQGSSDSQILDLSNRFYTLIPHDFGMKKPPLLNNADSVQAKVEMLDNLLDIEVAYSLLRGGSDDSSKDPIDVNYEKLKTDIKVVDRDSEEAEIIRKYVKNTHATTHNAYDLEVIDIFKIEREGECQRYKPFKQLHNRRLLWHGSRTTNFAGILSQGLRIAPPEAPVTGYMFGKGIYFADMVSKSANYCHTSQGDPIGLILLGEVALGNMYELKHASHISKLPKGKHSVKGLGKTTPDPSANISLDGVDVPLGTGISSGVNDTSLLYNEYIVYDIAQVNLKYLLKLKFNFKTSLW

NC(=O)c1cccc(N)c1 [3-aminobenzamide]
colorimetric PARP assay kit, ADP-ribosylation of histones [1]: 3-aminobenzamide (3AB) inhibited ADP-ribosylation of histones by HsPARP1

O=c1[nH]c2ccccc2c2ccccc12 [6(5H)-phenanthridinone]
dTm [2]: ~ +4 °C

NC(=O)c1ccc[n+]([C@@H]2O[C@H](COP(=O)(O)OP(=O)(O)OC[C@H]3O[C@@H](n4cnc5c(N)ncnc54)[C@H](O)[C@@H]3O)[C@@H](O)[C@H]2O)c1 [NAD+]
immunoprecipitated GFP fusion, pan-ADP-ribose immunoblot [3]: canonical Arabidopsis PARP2 enzyme formed PAR chains in a NAD^+-dependent manner
